Usually IC50 stands for the concentration at which inhibition is half-maximal. High values mean weaker potency, low ones greater potency. By Ki is commonly meant the dissociation constant of the complex between target and ligand, obtained from inhibition or displacement. High values mean a looser hold on the target, low ones a stronger hold on the target.

The test deals with androgen receptor (Rattus norvegicus (Rat), UniProt P15207). Briefly: Androgen receptor competition binding with radiolabeled dihydrotestosterone (hydroxyapatite separation, scintillation counting). As to conditions: androgen receptor from prostate of male SD rats; competition with radiolabeled DHT; 4 Celsius degrees, 15 hours. Here is the method: Reagents and instruments: radiolabeled dihydrotestosterone […] and unlabelled dihydrotestosterone (DHT) purchased from Sigma-Aldrich (St. Louis, Mo.), scintillation solution purchased from Perkin Elmer Life Sciences (Boston, Mass.), hydroxyapatite (HAP) suspension purchased from Bio-Rad Laboratories (Hercules, Calif.), buffer (containing 10 mM Tris, 1.5 mM disodium EDTA, 0.25 M sucrose, 10 mM sodium molybdate and 1 mM PMSF, pH value adjusted to 7.4), and hydroxyapatite (HAP) solution (containing 50 mM Tris and 1 mM KH2PO4, pH value adjusted to 7.4).
Sequence of androgen receptor (P15207 whole entry S389L): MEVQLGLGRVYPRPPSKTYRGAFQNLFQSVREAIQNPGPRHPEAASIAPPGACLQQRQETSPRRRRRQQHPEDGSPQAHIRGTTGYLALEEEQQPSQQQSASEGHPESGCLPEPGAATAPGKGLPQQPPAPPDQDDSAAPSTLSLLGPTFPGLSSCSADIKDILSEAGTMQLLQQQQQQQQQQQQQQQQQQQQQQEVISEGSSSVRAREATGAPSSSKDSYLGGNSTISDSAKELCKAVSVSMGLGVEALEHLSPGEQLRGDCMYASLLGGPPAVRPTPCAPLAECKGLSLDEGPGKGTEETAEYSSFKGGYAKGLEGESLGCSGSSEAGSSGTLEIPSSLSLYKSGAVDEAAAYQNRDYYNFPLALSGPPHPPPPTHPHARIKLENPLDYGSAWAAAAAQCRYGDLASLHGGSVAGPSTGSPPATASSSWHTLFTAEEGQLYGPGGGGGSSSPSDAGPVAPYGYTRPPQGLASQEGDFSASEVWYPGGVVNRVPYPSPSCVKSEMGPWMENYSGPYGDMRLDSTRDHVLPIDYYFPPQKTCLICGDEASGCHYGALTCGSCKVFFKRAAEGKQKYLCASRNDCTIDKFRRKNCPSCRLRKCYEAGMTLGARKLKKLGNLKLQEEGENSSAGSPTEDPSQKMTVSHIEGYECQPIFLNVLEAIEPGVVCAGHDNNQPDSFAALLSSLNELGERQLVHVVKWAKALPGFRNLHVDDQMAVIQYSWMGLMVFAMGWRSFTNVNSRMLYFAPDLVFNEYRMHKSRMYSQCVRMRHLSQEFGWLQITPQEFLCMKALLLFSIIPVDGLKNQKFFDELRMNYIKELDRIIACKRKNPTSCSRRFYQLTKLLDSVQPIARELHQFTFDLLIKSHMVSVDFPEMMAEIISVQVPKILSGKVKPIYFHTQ
In the present invention, the biological activity of the N-aromatic amide compounds with the formula (I) and/or (II) is measured accord to the following method. […] The androgen receptor (prepared from the prostate of male SD rats, 200-250 g of male Sprague-Dawley rats) and the radiolabeled dihydrotestosterone ([…], 84 Ci/mmol) are added to the buffer and well mixed for preparing reaction solution. The concentration gradients of the diluted compounds are respectively added into the reaction solution and well mixed, and the resulting mixtures are incubated at 4 Celsius degrees for 15 hours, so that the compounds and the dihydrotestosterone can fully react with the androgen receptor. Thereafter, the hydroxyapatite (HAP) suspension is added therein, well mixed, incubated for 10 minutes at 4 Celsius degrees, and centrifuged for removing the supernatant containing free dihydrotestosterone. The dihydrotestosterone bound to the androgen receptor is adsorbed in the hydroxyapatite and thus retained in the precipitated particles, thereby separating the bound and unbound radiolabelled ligands. A scintillation solution is added to the precipitate, well mixed, and detected for the radioactivity intensity using a WALLACE MicroBeta Trilux Scintillator (Perkin Elmer).The detected radioactivity intensity values for the concentration gradients are processed to obtain values of ICso and K. The specific biological activity (the competition results between androgen receptor ligand and radioligand) is shown in the following table: […]
In the case of `CC(C)(C(=O)Nc1ccc(C#N)c(C(F)(F)F)c1)n1ccc2cc(F)c(-c3ccccc3)cc21` [Example 2, N-(4-cyano-3-trifluoromethyl) phenyl-2-(5-fluoro-6-phenyl-1H-indolyl-1-yl)-2-methylpropanamide], the half-inhibitory concentration (IC50) is 0.337 µM.
On the same count and under the same terms, next, `CC(C)(C(=O)Nc1ccc(C#N)c(C(F)(F)F)c1)n1ccc(F)n1` [Example 16, N-(4-cyano-3-trifluoromethyl)-phenyl-2-(3-fluoro-1H-pyrazolyl-1-yl)-2-methylpropanamide]: 0.147 µM.
Regarding `CC(C)(C(=O)Nc1ccc(C#N)c(C(F)(F)F)c1)n1cc(F)cn1` [Example 15, N-(4-cyano-3-trifluoromethyl)-phenyl-2-(4-fluoro-1H-pyrazolyl-1-yl)-2-methylpropanamide], the IC50 turned out to be 0.125 µM.
For `N#Cc1ccc(NC(=O)C2(n3cc(F)cn3)CCC2)cc1C(F)(F)F` [Example 23, N-(4-cyano-3-trifluoromethyl)-phenyl-1-(4-fluoro-1H-pyrazolyl-1-yl)-cyclobutane-formamide], the IC50 was 0.115 µM.
Compound `CC(C)(C(=O)Nc1ccc(C#N)c(C(F)(F)F)c1)N1CCc2cc(F)ccc21` [Example 10, N-(4-cyano-3-trifluoromethyl)-phenyl-2-(5-fluoro-1H-2,3-dihydroindolyl-1-yl)-2-methylpropanamide] gave an IC50 of 0.437 µM and a Ki of 0.387 µM.
`CC(C)(C(=O)Nc1ccc(C#N)c(C(F)(F)F)c1)n1ccc2cc(F)ccc21` [Example 3, N-(4-cyano-3-trifluoromethyl)-phenyl-2-(5-fluoro-1H-indolyl-1-yl)-2-methylpropanamide] came in with an IC50 of 0.215 µM and a Ki of 0.367 µM.
In turn, `CC(C)(C(=O)Nc1ccc(C#N)c(C(F)(F)F)c1)n1cc(Br)c(F)n1` [Example 25, 2-(4-bromo-3-fluoro-1H-pyrazolyl-1-yl)-N-(4-cyano-3-trifluoromethyl)-phenyl-2-methylpropanamide] gave an IC50 of 0.091 µM.
Consider `CC(C)(C(=O)Nc1ccc(C#N)c(C(F)(F)F)c1)n1ccc2c(F)cc(-c3ccc(F)cc3)cc21` [Example 1, N-(4-cyano-3-trifluoromethyl)-phenyl-2-[4-fluoro-6-(4-fluorophenyl)-1H-indolyl-1-yl]-2-methylpropanamide], for which the IC50 turned out to be 0.546 µM.
Take `CC(C)(C(=O)Nc1ccc(C#N)c(C(F)(F)F)c1)n1cc(Cl)cn1` [Example 17, N-(4-cyano-3-trifluoromethyl)-phenyl-2-(4-chloro-1H-pyrazolyl-1-yl)-2-methylpropanamide]: the IC50 is 0.116 µM.
Regarding `CC(C)(C(=O)Nc1ccc(C#N)c(C(F)(F)F)c1)n1cc(F)c(F)n1` [Example 26, 2-(3,4-difluoro-1H-pyrazolyl-1-yl)-N-(4-cyano-3-trifluoromethyl)-phenyl-2-methylpropanamide], the IC50 came out at 0.075 µM.
`CC(C)(C(=O)Nc1ccc(C#N)c(C(F)(F)F)c1)n1ccc2ccc(F)cc21` [Example 5, N-(4-cyano-3-trifluoromethyl)-phenyl-2-(6-fluoro-1H-indolyl-1-yl)-2-methylpropanamide]: the IC50 was found to be 0.227 µM and the Ki came to 0.314 µM.
For the compound `CC(C)(C(=O)Nc1ccc(C#N)c(C(F)(F)F)c1)n1ccc2cc(C(F)(F)F)ccc21` [Example 8, N-(4-cyano-3-trifluoromethyl)-phenyl-2-(5-trifluoromethyl-1H-indolyl-1-yl)-2-methylpropanamide], the IC50 was determined as 0.357 µM and the Ki came to 0.44 µM.
The compound `CC(C)(C(=O)Nc1ccc(C#N)c(Cl)c1)n1ccc2cc(F)ccc21` [Example 12, N-(3-chloro-4-cyano) phenyl-2-(5-fluoro-1H-indolyl-1-yl)-2-methylpropanamide] returned an IC50 of 0.205 µM and a Ki of 0.351 µM.
With `N#Cc1ncc(NC(=O)C2(n3cc(F)cn3)CCC2)cc1C(F)(F)F` [Example 24, N-(6-cyano-5-trifluoromethyl-pyridyl-3-yl)-1-(4-fluoro-1H-pyrazolyl-1-yl) -cyclobutane-formamide], the IC50 came to 0.068 µM.
As for `CC(C)(C(=O)Nc1ccc(C#N)c(C(F)(F)F)c1)n1ccc2c(F)cccc21` [Example 4, N-(4-cyano-3-trifluoromethyl)-phenyl-2-(4-fluoro-1H-indolyl-1-yl)-2-methylpropanamide], the IC50 was 0.246 µM and affinity was put at a Ki of 0.491 µM.
In turn, `CC(C)(C(=O)Nc1ccc(C#N)c(C(F)(F)F)c1)N1CCc2cc(F)c(F)cc21` [Example 11, N-(4-cyano-3-trifluoromethyl)-phenyl-2-(5,6-difluoro-1H-2,3-dihydroindolyl-1-yl)-2-methylpropanamide] displayed an IC50 of 0.505 µM and a Ki of 0.505 µM.
Compound `CC(C)(C(=O)Nc1cnc(C#N)c(C(F)(F)F)c1)n1cc(F)cn1` [Example 22] registered an IC50 of 0.073 µM.
With `CC(C)(C(=O)Nc1ccc(C#N)c(C(F)(F)F)c1)n1cc(-c2ccc(F)cc2)c(F)n1` [Example 13, N-(4-cyano-3-trifluoromethyl)-phenyl-2-[3-fluoro-4-(4-fluorophenyl)-1H-pyrazolyl-1-yl]-2-methylpropanamide], the IC50 stood at 0.416 µM.
In turn, `CC(C)(C(=O)Nc1ccc(C#N)c(C(F)(F)F)c1)n1cc(C#N)c(Cl)n1` [Example 30, 2-(3-chloro-4-cyano-1H-pyrazolyl-1-yl)-N-(4-cyano-3-trifluoromethyl)-phenyl-2-methylpropanamide] gave an IC50 of 0.088 µM.
On to `CC(C)(C(=O)Nc1ccc(C#N)c(C(F)(F)F)c1)n1cc(-c2ccc(F)cc2)cn1` [Example 14, N-(4-cyano-3-trifluoromethyl)-phenyl-2-[4-(4-fluorophenyl)-1H-pyrazolyl-1-yl]-2-methylpropanamide], for which the IC50 amounted to 0.76 µM.
Turning to `CC(C)(C(=O)Nc1ccc(C#N)c(C(F)(F)F)c1)n1cc(Cl)c(F)n1` [Example 29, 2-(3-fluoro-4-chloro-1H-pyrazolyl-1-yl)-N-(4-cyano-3-trifluoromethyl)-phenyl-2-methylpropanamide], the concentration for half-maximal inhibition (IC50) amounted to 0.105 µM.
As to `CC(C)(C(=O)Nc1ccc(C#N)c(C(F)(F)F)c1)n1ccc2cc([N+](=O)[O-])ccc21` [Example 6, N-(4-cyano-3-trifluoromethyl)-phenyl-2-(5-nitro-1H-indolyl-1-yl)-2-methylpropanamide], the IC50 came to 0.261 µM and the Ki is 0.421 µM.
For `CC(C)(C(=O)Nc1ccc(C#N)c(C(F)(F)F)c1)n1ccc2cc(C#N)ccc21` [Example 9, N-(4-cyano-3-trifluoromethyl)-phenyl-2-(5-cyano-1H-indolyl-1-yl)-2-methylpropanamide], the IC50 worked out at 0.232 µM and affinity was put at a Ki of 0.445 µM.

(Values after patent US20230382870A1, “N-AROMATIC AMIDE COMPOUNDS, PREPARATION METHODS AND USES THEREOF” (SHENZHEN EDK PHARMACEUTICAL TECHNOLOGY CO., LTD., priority 2021, published 2023).)
